Drawing on patent US9944646B2, “Bicyclic azaheterocyclobenzylamines as PI3K inhibitors” (Incyte Corporation, priority 2012, dated 2018), this text covers IC50 for 22 compounds.

The assay addresses PI3Kδ (Homo sapiens (Human), UniProt O00329). The experiment in a line: PI3K Enzyme Assay (Example A2), [γ-33P]ATP filter plate. In kind it is biochemical. How it is done:
Example A2: PI3K Enzyme Assay
Lipid kinase substrate, phosphoinositol-4,5-bisphosphate (PIP2), are purchased from Echelon Biosciences (Salt Lake City, Utah). PI3K isoforms α, β, δ and γ are purchased from Millipore (Bedford, Mass.). ATP, MgCl2, DTT, EDTA, MOPS and CHAPS are purchased from Sigma-Aldrich (St. Louis, Mo.).
The kinase reaction are conducted in clear-bottom 96-well plate from Thermo Fisher Scientific in a final volume of 24 μL. Inhibitors are first diluted serially in DMSO and added to the plate wells before the addition of other reaction components. The final concentration of DMSO in the assay is 0.5%. The PI3K assays are carried out at room temperature in 20 mM MOPS, pH 6.7, 10 mM MgCl2, 5 mM DTT and CHAPS 0.03%. The reaction mixture is prepared containing 50 µM PIP2, kinase and varying concentration of inhibitors. Reactions are initiated by the addition of ATP containing 2.2 μCi [γ-^33P]ATP to a final concentration of 1000 μM. The final concentration of PI3K isoforms α, β, δ and γ in the assay were 1.3, 9.4, 2.9 and 10.8 nM, respectively. Reactions are incubated for 180 minutes and terminated by the addition of 100 μL of 1 M potassium phosphate pH 8.0, 30 mM EDTA quench buffer. A 100 μL aliquot of the reaction solution are then transferred to 96-well Millipore MultiScreen IP […] PVDF filter plate (The filter plate is prewetted with 200 μL 100% ethanol, distilled water, and 1 M potassium phosphate pH 8.0, respectively). The filter plate is aspirated on a Millipore Manifold under vacuum and washed with 18×200 μL wash buffer containing 1 M potassium phosphate pH 8.0 and 1 mM ATP. After drying by aspiration and blotting, the plate is air dried in an incubator at 37° C. overnight. Packard TopCount adapter (Millipore) is then attached to the plate followed with addition of 120 μL Microscint 20 scintillation cocktail (Perkin Elmer) in each well. After the plate sealing, the radioactivity of the product is determined by scintillation counting on Topcount (Perkin-Elmer). IC50 determination is performed by fitting the curve of percent control activity versus the log of the inhibitor concentration using the GraphPad Prism 3.0 software.

Chain of PI3Kδ (O00329 whole entry): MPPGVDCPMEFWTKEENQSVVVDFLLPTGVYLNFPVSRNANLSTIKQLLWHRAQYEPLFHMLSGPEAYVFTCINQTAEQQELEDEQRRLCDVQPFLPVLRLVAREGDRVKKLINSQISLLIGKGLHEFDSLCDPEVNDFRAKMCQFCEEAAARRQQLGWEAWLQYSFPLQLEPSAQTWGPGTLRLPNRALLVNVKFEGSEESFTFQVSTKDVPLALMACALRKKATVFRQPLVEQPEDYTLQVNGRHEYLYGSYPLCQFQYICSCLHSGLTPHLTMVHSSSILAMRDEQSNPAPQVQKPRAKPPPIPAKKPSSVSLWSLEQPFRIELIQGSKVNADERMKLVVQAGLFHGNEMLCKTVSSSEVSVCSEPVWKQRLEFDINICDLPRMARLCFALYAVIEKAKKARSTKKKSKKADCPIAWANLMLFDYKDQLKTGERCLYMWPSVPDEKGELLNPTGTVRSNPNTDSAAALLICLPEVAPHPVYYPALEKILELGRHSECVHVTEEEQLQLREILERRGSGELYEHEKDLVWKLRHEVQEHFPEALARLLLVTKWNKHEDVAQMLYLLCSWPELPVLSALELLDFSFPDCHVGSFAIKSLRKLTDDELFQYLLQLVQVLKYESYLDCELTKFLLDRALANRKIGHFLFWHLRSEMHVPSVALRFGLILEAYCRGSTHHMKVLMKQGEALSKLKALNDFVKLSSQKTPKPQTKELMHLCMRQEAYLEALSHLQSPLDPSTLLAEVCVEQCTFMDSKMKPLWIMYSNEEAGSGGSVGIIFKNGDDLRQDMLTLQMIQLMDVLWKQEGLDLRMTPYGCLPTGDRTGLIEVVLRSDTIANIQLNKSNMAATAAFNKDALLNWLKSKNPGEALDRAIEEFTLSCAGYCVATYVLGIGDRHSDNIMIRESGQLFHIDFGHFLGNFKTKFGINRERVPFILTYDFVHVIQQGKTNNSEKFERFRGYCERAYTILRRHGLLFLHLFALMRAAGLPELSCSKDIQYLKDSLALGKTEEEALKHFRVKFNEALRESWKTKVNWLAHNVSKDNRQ
Chain of PI3Kδ (P27986 whole entry partner): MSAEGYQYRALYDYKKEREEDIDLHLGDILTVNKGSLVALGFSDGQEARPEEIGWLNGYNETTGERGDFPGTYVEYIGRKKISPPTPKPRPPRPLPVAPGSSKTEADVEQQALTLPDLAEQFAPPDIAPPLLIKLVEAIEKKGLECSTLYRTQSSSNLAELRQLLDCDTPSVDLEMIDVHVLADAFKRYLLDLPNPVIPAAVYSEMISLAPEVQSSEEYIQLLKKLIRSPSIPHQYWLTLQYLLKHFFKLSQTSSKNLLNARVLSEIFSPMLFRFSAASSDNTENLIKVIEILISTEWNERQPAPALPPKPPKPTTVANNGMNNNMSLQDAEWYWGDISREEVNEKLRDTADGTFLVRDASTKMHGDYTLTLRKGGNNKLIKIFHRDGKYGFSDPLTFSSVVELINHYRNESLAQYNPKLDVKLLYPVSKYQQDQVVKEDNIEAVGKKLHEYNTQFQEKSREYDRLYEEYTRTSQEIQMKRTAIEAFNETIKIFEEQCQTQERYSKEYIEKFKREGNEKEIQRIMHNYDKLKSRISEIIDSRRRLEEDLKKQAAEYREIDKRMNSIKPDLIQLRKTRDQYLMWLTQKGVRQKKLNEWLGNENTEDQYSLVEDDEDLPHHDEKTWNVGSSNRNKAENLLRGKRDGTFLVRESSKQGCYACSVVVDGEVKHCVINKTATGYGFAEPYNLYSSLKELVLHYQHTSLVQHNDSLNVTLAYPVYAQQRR

A word on the IC50: it is the concentration that inhibits the measured activity by half. Turning to `Cc1nn(C(C)c2cc(Cl)c(C#N)c3c2OC(C)CN(CC#N)C3)c2ncnc(N)c12` (single isomer, unassigned) [Example 108, 9-[1-(4-amino-3-methyl-1H-pyrazolo[3,4-d]pyrimidin-1-yl)ethyl]-7-chloro-4-(cyanomethyl)-2-methyl-2,3,4,5-tetrahydro-1,4-benzoxazepine-6-carbonitrile], the IC50 was at most 100 nM.
The compound `Cc1nn(C(C)c2cc(Cl)c(C#N)c3c2OC(C)CN(C2CN(CC(N)=O)C2)C3)c2ncnc(N)c12` (single isomer, unassigned) [Example 51, 2-{3-[9-[1-(4-Amino-3-methyl-1H-pyrazolo[3,4-d]pyrimidin-1-yl)ethyl]-7-chloro-6-cyano-2-methyl-2,3-dihydro-1,4-benzoxazepin-4(5H)-yl]azetidin-1-yl}acetamide] returned an IC50 of at most 100 nM.
Consider `Cc1nn(C(C)c2cc(Cl)c(C#N)c3c2OC(C)CN(C2CN(CCO)C2)C3)c2ncnc(N)c12` (single isomer, unassigned) [Example 103, 9-[1-(4-amino-3-methyl-1H-pyrazolo[3,4-d]pyrimidin-1-yl)ethyl]-7-chloro-4-[1-(2-hydroxyethyl)azetidin-3-yl]-2-methyl-2,3,4,5-tetrahydro-1,4-benzoxazepine-6-carbonitrile], for which the IC50 is at most 100 nM.
With `Cc1nn(C(C)c2cc(Cl)c(F)c3c2OC(C)CN(C2CN(S(N)(=O)=O)C2)C3)c2ncnc(N)c12` (single isomer, unassigned) [Example 81, 3-[9-[1-(4-amino-3-methyl-1H-pyrazolo[3,4-d]pyrimidin-1-yl)ethyl]-7-chloro-6-fluoro-2-methyl-2,3-dihydro-1,4-benzoxazepin-4(5H)-yl]azetidine-1-sulfonamide], the IC50 was at most 100 nM.
For `Cc1nn(C(C)c2cc(Cl)c(C#N)c3c2OC(C)CN(C2CN(S(C)(=O)=O)C2)C3)c2ncnc(N)c12` (single isomer, unassigned) [Example 93, 9-[1-(4-amino-3-methyl-1H-pyrazolo[3,4-d]pyrimidin-1-yl)ethyl]-7-chloro-2-methyl-4-[1-(methylsulfonyl)azetidin-3-yl]-2,3,4,5-tetrahydro-1,4-benzoxazepine-6-carbonitrile], the IC50 is at most 100 nM.
The compound `Cc1nn(C(C)c2cc(Cl)c(F)c3c2OC(C)CN(S(C)(=O)=O)C3)c2ncnc(N)c12` (single isomer, unassigned) [Example 39, 1-{1-[7-Chloro-6-fluoro-2-methyl-4-(methylsulfonyl)-2,3,4,5-tetrahydro-1,4-benzoxazepin-9-yl]ethyl}-3-methyl-1H-pyrazolo[3,4-d]pyrimidin-4-amine] had an IC50 of over 800 nM.
With `Cc1nn(C(C)c2cc(Cl)c(F)c3c2OC(C)CN(C[C@@H](C)O)C3)c2ncnc(N)c12` (single isomer, unassigned) [Example 78], the IC50 was at most 100 nM.
`CNC(=O)C1CC(N2Cc3c(C#N)c(Cl)cc(C(C)n4nc(C)c5c(N)ncnc54)c3OC(C)C2)C1` (single isomer, unassigned) [Example 114, 3-[9-[1-(4-amino-3-methyl-1H-pyrazolo[3,4-d]pyrimidin-1-yl)ethyl]-7-chloro-6-cyano-2-methyl-2,3-dihydro-1,4-benzoxazepin-4(5H)-yl]-N-methylcyclobutanecarboxamide] yielded an IC50 of at most 100 nM.
Turning to `Cc1nn(C(C)c2cc(Cl)c(F)c3c2O[C@@H](C)CN(C2CC(C(N)=O)C2)C3)c2ncnc(N)c12` (stereo partly shown) [Example 43], the IC50 is at most 100 nM.
With `Cc1nn([C@@H](C)c2cc(Cl)c(F)c3c2O[C@@H](C)CN(C2CN(C[C@@H](C)O)C2)C3)c2ncnc(N)c12` [Example 86, (2R)-1-{3-[(2S)-9-[(1S)-1-(4-amino-3-methyl-1H-pyrazolo[3,4-d]pyrimidin-1-yl)ethyl]-7-chloro-6-fluoro-2-methyl-2,3-dihydro-1,4-benzoxazepin-4(5H)-yl]azetidin-1-yl}propan-2-ol], the IC50 is at most 100 nM.
As to `CC(=O)N1CC(N2CCOc3c(C(C)n4nc(C)c5c(N)ncnc54)cc(Cl)c(F)c3C2)C1` (stereo not shown) [Example 34, 1-{1-[4-(1-Acetylazetidin-3-yl)-7-chloro-6-fluoro-2,3,4,5-tetrahydro-1,4-benzoxazepin-9-yl]ethyl}-3-methyl-1H-pyrazolo[3,4-d]pyrimidin-4-amine], the IC50 was at most 100 nM.
On to `CNC(=O)C1CC(N2Cc3c(C#N)c(Cl)cc(C(C)n4nc(C)c5c(N)ncnc54)c3OC(C)C2)C1` (single isomer, unassigned) [Example 115, 3-[9-[1-(4-amino-3-methyl-1H-pyrazolo[3,4-d]pyrimidin-1-yl)ethyl]-7-chloro-6-cyano-2-methyl-2,3-dihydro-1,4-benzoxazepin-4(5H)-yl]-N-methylcyclobutanecarboxamide], for which the IC50 was at most 100 nM.
For `Cc1nn(C(C)c2cc(Cl)c(F)c3c2OC(C)CN(C2CN(C(N)=O)C2)C3)c2ncnc(N)c12` (single isomer, unassigned) [Example 83, 3-[9-[1-(4-amino-3-methyl-1H-pyrazolo[3,4-d]pyrimidin-1-yl)ethyl]-7-chloro-6-fluoro-2-methyl-2,3-dihydro-1,4-benzoxazepin-4(5H)-yl]azetidine-1-carboxamide], the IC50 is at most 100 nM.
For `Cc1nn(C(C)c2cc(Cl)c(C#N)c3c2OC(C)CN(C2CN(C(=O)NC(C)C)C2)C3)c2ncnc(N)c12` (single isomer, unassigned) [Example 101, 3-[9-[1-(4-amino-3-methyl-1H-pyrazolo[3,4-d]pyrimidin-1-yl)ethyl]-7-chloro-6-cyano-2-methyl-2,3-dihydro-1,4-benzoxazepin-4(5H)-yl]-N-isopropylazetidine-1-carboxamide] the value was at most 100 nM; for `CCC(=O)N1CC(N2Cc3c(C#N)c(Cl)cc(C(C)n4nc(C)c5c(N)ncnc54)c3OC(C)C2)C1` (single isomer, unassigned) [Example 95, 9-[1-(4-amino-3-methyl-1H-pyrazolo[3,4-d]pyrimidin-1-yl)ethyl]-7-chloro-2-methyl-4-(1-propionylazetidin-3-yl)-2,3,4,5-tetrahydro-1,4-benzoxazepine-6-carbonitrile], at most 100 nM.
In turn, `Cc1nn(C(C)c2cc(Cl)c(C#N)c3c2OC(C)CN(C2CN(CC(N)=O)C2)C3)c2ncnc(N)c12` (single isomer, unassigned) [Example 50, 2-{3-[9-[1-(4-Amino-3-methyl-1H-pyrazolo[3,4-d]pyrimidin-1-yl)ethyl]-7-chloro-6-cyano-2-methyl-2,3-dihydro-1,4-benzoxazepin-4(5H)-yl]azetidin-1-yl}acetamide] registered an IC50 of at most 100 nM.
`Cc1nn(C(C)c2cc(Cl)c(C#N)c3c2OCCN(C2CN(S(C)(=O)=O)C2)C3)c2ncnc(N)c12` (stereo not shown) [Example 90, 9-[1-(4-amino-3-methyl-1H-pyrazolo[3,4-d]pyrimidin-1-yl)ethyl]-7-chloro-4-[1-(methylsulfonyl)azetidin-3-yl]-2,3,4,5-tetrahydro-1,4-benzoxazepine-6-carbonitrile] gave an IC50 of at most 100 nM.
`Cc1nn(C(C)c2cc(Cl)c(F)c3c2OC(C)CN(C2CN(S(C)(=O)=O)C2)C3)c2ncnc(N)c12` (stereo not shown) [Example 75, 1-(1-{7-chloro-6-fluoro-2-methyl-4-[1-(methylsulfonyl)azetidin-3-yl]-2,3,4,5-tetrahydro-1,4-benzoxazepin-9-yl}ethyl)-3-methyl-1H-pyrazolo[3,4-d]pyrimidin-4-amine] showed an IC50 of at most 100 nM.
On to `CCOC(=O)N1CC(N2CCOc3c(C(C)n4nc(C)c5c(N)ncnc54)cc(Cl)c(C#N)c3C2)C1` (stereo not shown) [Example 92, ethyl 3-[9-[1-(4-amino-3-methyl-1H-pyrazolo[3,4-d]pyrimidin-1-yl)ethyl]-7-chloro-6-cyano-2,3-dihydro-1,4-benzoxazepin-4(5H)-yl]azetidine-1-carboxylate], for which the IC50 is at most 100 nM.
The same measure for `Cc1nn([C@@H](C)c2cc(Cl)c(F)c3c2O[C@@H](C)CN(C2CN(C[C@H](C)O)C2)C3)c2ncnc(N)c12` [Example 85, (2S)-1-{3-[(2S)-9-[(1S)-1-(4-amino-3-methyl-1H-pyrazolo[3,4-d]pyrimidin-l-yl)ethyl]-7-chloro-6-fluoro-2-methyl-2,3-dihydro-1,4-benzoxazepin-4(5H)-yl]azetidin-1-yl}propan-2-ol]: at most 100 nM.
As to `Cc1nn(C(C)c2cc(Cl)c(C#N)c3c2OC(C)CN(Cc2cccnc2)C3)c2ncnc(N)c12` (single isomer, unassigned) [Example 59, 9-[1-(4-Amino-3-methyl-1H-pyrazolo[3,4-d]pyrimidin-1-yl)ethyl]-7-chloro-2-methyl-4-(pyridin-3-ylmethyl)-2,3,4,5-tetrahydro-1,4-benzoxazepine-6-carbonitrile], the half-inhibitory concentration (IC50) was at most 100 nM.
For `Cc1nn(C(C)c2cc(Cl)c(F)c3c2O[C@@H](C)CN(C2CN(CC(N)=O)C2)C3)c2ncnc(N)c12` (single isomer, unassigned) [Example 87] the value was 100 to 500 nM.
